Measurements from patent US12692274B2, “Tetrahydroisoquinoline derivatives for the treatment of red blood disorders and inflammatory diseases” (Sanofi, priority 2020, dated 2026).
Values joined by “and” are separate entries in the source; they are usually repeats but may differ in a detail not shown here. Equal entries are not always repeated.

Tests used:
[1] = system: NQO1 activation in BEAS-2B cells; assay: BEAS-2B cellular MTT assay of NQO1 activation, 0% HSA; format: cell-based
Description: (§1) The growth rate of the BEAS-2B cells changed based on the lot of BEGM SingleQuots in the BEGM media. The cell growth rate was determined for each lot of SingleQuots. Ideally, cells were thawed into media with the new lot of SingleQuots and grown for two passages before testing; however, growing an active culture in the new lot of media for two to three passages before testing was also acceptable. Until the cell growth rate was determined, cells were seeded at different densities (cells/cm^2) in multiple tissue culture flasks in order to avoid the cells becoming more than 70% confluent. Cells should not go above 70% confluent as the cells differentiate when they become confluent. After the cells were grown in the new lot of media as described above, the number of cells per well needed to seed in the collagen plates was determined by seeding different numbers of cells per well and incubating for 48 hours. Cell confluency was checked after 48 hours and a cell number that results in just below to just above confluency was chosen for future plate seeding. Cell confluency in the assay plate was 95-100% confluent after 48 hours.
(§2) Cell media consists of BEBM basal media with the BEGM SingleQuots added. SingleQuots vials were thawed in the tissue culture hood, and GA-1000 (Gentamicin-Amphotericin) was not added.
(§3) If complete media was to be used immediately, BEBM basal media was warmed to room temperature in the hood, but not as high as 37° C. When the media was made for future use, SingleQuots were added to cold BEBM. One at a time, the SingleQuots components (except GA-1000) were added to the BEBM media. After removal of each component from the vial, the vial was rinsed with 0.5-1 mL of BEBM (depending on the volume the vial could hold) and added to the bottle of BEBM. Once all components were added, the label that comes with the SingleQuots kit was put on the bottle of media and the date was recorded. The bottle of media was mixed by gentle shaking. The media was not filtered. This media was stored at 4° C., with any leftover media disposed of one month after the date the SingleQuots were added.
(§4) BEAS-2B Cell Splitting Protocol:
(§5) First, Trypsin was warmed to 37° C. in the water bath. The media was then warmed to room temperature by letting it sit in the tissue culture hood, but not as high as 37° C. The media was aspirated from flask(s) and the flask(s) were washed with PBS. From 1 to 1.5 mL of warm trypsin were added to each flask and incubated at 37° C. until cells came off the flask on their own (~8-10 minutes), with no vigorous tapping on the flask to detach the cells.
(§6) Media was added to each flask to a total volume of 8-10 mL per flask and transferred to 15 mL conical tube(s). The cells were spun down at 120 g for 5 minutes, level 5 brake. The cells can be spun down between 100 and 150 g. Next the media was aspirated and the cell pellet was resuspended in fresh media by pipetting up and down and flicking the tube side to side. Any clumps of cells that remained were allowed to settle to the bottom of the tube before the top suspension was transferred into another tube, leaving about 1 mL of media in the original tube. The 1 mL of media and cell clumps were mixed with a single channel p1000 pipette, and any remaining clumps were removed before adding the cells in suspension to the other tube. The suspension was mixed with a pipette, an aliquot was removed, and the cells were counted. The amount of cells/cm^2 desired was calculated and the required volume of cells was added to tissue culture flasks. For example, use of SingleQuots with ~6000 cells/cm^2 was appropriate for a three day incubation and ~3000 cells/cm^2 for a five day incubation. Optimal cell density differed depending on lot of SingleQuots. The flasks were incubated at 37° C. in 5% CO2.
(§7) Day One: Seeding BEAS-2B Cells in Collagen Plates:
(§8) Plate(s) were either seeded with 0.3% or 0% HSA. While the protocol was similar for both conditions any differences are noted herein below. […]

[2] = molecular target: HIS-Keap1 full length / Biotin-Nrf2 (16-mer) (Homo sapiens, UniProt Q14145); assay: biochemical
[3] = system: NQO1 activation in BEAS-2B cells; assay: BEAS-2B cellular MTT assay of NQO1 activation, 0.3% HSA; format: cell-based
Description: as §1, §2, §3, §4, §5, §6, §7, §8

[4] = Homo sapiens, serum free, read-out: BEAS EC50 (nM) serum free
[5] = serum free, read-out: BEAS EC50 (nM) serum free
[6] = Homo sapiens, Serum Free W, read-out: BEAS EC50 (nM) Serum Free W
[7] = Serum Free W, read-out: BEAS EC50 (nM) Serum Free W
[8] = Homo sapiens, BEAS+ W, read-out: BEAS+ W EC50
[9] = BEAS+ W, read-out: BEAS+ W EC50

Chain of HIS-Keap1 full length / Biotin-Nrf2 (16-mer) (Q14145 whole entry): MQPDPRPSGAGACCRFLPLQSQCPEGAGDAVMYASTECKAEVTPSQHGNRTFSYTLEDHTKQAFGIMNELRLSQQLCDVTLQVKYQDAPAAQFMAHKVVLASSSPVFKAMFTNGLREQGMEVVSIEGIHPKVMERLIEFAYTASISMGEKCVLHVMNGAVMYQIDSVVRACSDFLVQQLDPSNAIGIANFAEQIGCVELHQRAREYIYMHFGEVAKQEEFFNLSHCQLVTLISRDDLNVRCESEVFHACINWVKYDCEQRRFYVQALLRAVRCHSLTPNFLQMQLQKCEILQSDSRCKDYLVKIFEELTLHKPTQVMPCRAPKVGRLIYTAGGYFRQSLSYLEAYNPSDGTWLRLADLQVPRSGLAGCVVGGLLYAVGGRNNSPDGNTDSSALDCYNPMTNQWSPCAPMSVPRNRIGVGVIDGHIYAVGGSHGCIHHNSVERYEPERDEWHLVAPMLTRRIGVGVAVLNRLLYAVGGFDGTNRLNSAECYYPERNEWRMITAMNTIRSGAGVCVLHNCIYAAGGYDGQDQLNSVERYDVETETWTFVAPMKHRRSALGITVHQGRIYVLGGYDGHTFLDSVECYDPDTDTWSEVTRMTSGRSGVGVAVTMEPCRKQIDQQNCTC

Structure (SMILES)	EC50 [1, 4] [nM]	EC50 [1, 5] [nM]	IC50 [2]	EC50 [1, 6] [nM]	EC50 [1, 7]	further results
Cc1c2ccc3c1ncn3CCCCCCc1ccc(cc1)C(=O)N1CCc3ccc(cc3C1)[C@H]2CC(=O)O (single isomer, unassigned) [Compound 385]	2250	2850	238 nM and 244 nM	–	–	–
C[C@H](C(=O)O)[C@H]1c2ccc(nc2)OCCCCCc2ccc(cc2)C(=O)N2CCc3ccc1cc3C2 [Compound 60]	–	–	580 nM and 614 nM	333	258 nM and 226 nM	–
Cc1cc2ncc1[C@@H]([C@@H](C)C(=O)O)c1ccc3c(c1)CN(CC3)C(=O)c1ccc(cc1)C/C=C/CCO2 [Compound 61]	–	–	720 nM and 651 nM	422	245 nM	–
Cc1c2n(C)c3ccc(cc13)CCCCCCn1nnc3c(C)c(cnc31)[C@H](CC(=O)O)c1ccc3c(c1)CN(CC3)C2=O [Compound 68]	–	–	0.3 nM	0.4	0.3 nM	–
Cc1cc2cnc1OCC/C=C/Cc1ccc(cc1)C(=O)N1CCc3ccc(cc3C1)[C@@H]2[C@H](C)C(=O)O [Compound 74]	–	–	24.4 nM and 36.4 nM	4.7	7.1 nM	–
Cc1cc2cnc1OCCCCCc1ccc(cc1)C(=O)N1CCc3ccc(cc3C1)[C@H]2[C@@H](C)C(=O)O [Compound 76]	–	–	> 9900 nM	–	–	EC50 [3, 8]: > 10000 nM
COc1cc2ccc1C(=O)N1CCc3ccc(cc3C1)[C@@H](CC(=O)O)c1cnc3c(nnn3CCCCCC2)c1C [Compound 91]	–	–	1.9 nM	–	–	EC50 [3, 9]: 155 nM; EC50 [3, 8]: 131 nM
COc1cc2ccc1C(=O)N1CCc3ccc(cc3C1)C(CC(=O)O)c1cnc3c(nnn3CCCCCC2)c1C (centres unmarked) [Compound 103]	–	–	1.2 nM	22.1	36.8 nM	–
Cc1c2ccc3c1nnn3CCCCCc1ccc(cc1)C(=O)N1CCc3ccc(cc3C1)[C@H]2[C@@H](C)C(=O)O [Compound 130]	–	–	0.6 nM and 0.4 nM	–	–	EC50 [3, 9]: 0.5 nM and 0.7 nM; EC50 [3, 8]: < 0.5 nM
Cc1c2cnc3c1nnn3CCCCCCc1ccc(cc1)C(=O)N1CCc3ccc(cc3C1)[C@@H]2CC(=O)O [Compound 138]	0.5	0.3	0.1 nM	–	–	–
Cc1c2ccc3c1nnn3CCCCCCc1ccc(c(F)c1)C(=O)N1CCc3ccc(cc3C1)[C@@H]2[C@H](C)C(=O)O [Compound 142]	–	–	11.3 nM and 11.6 nM	34.5	36.1 nM	–
COc1cc2ccc1C(=O)N1CCc3ccc(cc3C1)C(CC(=O)O)c1cnc3c(nnn3CCCCC2)c1C (centres unmarked) [Compound 144]	–	–	0.7 nM and 0.6 nM	–	–	EC50 [3, 9]: 60.2 nM; EC50 [3, 8]: 32.4 nM
Cc1c2cnc3c1nnn3CCCCCCc1ccc(c(F)c1)C(=O)N1CCc3ccc(cc3C1)C2CC(=O)O (centres unmarked) [Compound 146]	0.2	–	0.1 nM	–	–	–
O=C(O)CC1c2ccc3c(c2)CN(CC3)C(=O)c2ccc(cc2F)CCCCCCn2nnc3c(Cl)c1ccc32 (centres unmarked) [Compound 148]	–	–	0.3 nM and 0.4 nM and 0.8 nM and 0.7 nM	–	–	EC50 ([3]; BEAS+, read-out: BEAS+ EC50): 0.3 nM
COc1cc2ccc1CCCCCn1nnc3c(C)c(ccc31)C(CC(=O)O)c1ccc3c(c1)CN(CC3)C2=O (centres unmarked) [Compound 190]	–	1	4.2 nM and 4.4 nM and 1.1 nM (2×)	–	–	–
O=C(O)CC1c2ccc(nc2)OCCCCCc2ccc(nc2)C(=O)N2CCc3ccc1cc3C2 (centres unmarked) [Compound 193]	1140	768	29.1 nM and 31.5 nM	–	–	–
Cn1c2cc3cc(cnc31)CCCCCCn1nnc3c(Cl)c(ccc31)C(CC(=O)O)c1ccc3c(c1)CN(CC3)C2=O (centres unmarked) [Compound 199]	12.7	11.9	3.7 nM and 3.6 nM	–	–	–
Cc1c2ccc3c1nnn3CCCCCc1cnc(nc1)C(=O)N1CCc3ccc(cc3C1)C2CC(=O)O (centres unmarked) [Compound 204]	2880	3290	3 nM and 2.7 nM	–	–	–
